Assays:
[1] = Toxicity in golden hamster infected with Leishmania donovani assessed as reduction in serum AST level at 40 mg/kg ,po and measured after 28 days post infection (reference value: 82.72 IU/L); type: organism-based, Mesocricetus auratus; conditions: in vivo, 672 h, time 28 day
Leishmania donovani [2] = assay: Antileishmanial activity against amastigote form of Leishmania donovani infected in BALB/c mouse assessed as inhibition of parasite growth in spleen at 20 mg/kg, po measured after 1 week post treatment by geimsa staining based analysis relative to control; type: functional; design: scale not given: the % may be the effect or the level left; conditions: time 1 weeks
Leishmania donovani [3] = assay: Antileishmanial activity against Leishmania donovani promastigotes measured after 48 hrs by MTT assay; type: functional, organism-based
J774 [4] = assay: Cytotoxicity against mouse J774 cells at 25 uM incubated for 72 hrs by MTT assay relative to control; type: toxicity, cell-based; conditions: j774, 72 h
Leishmania donovani [5] = assay: Antileishmanial activity against amastigote form of Leishmania donovani infected in BALB/c mouse assessed as inhibition of parasite growth in spleen at 10 mg/kg, po measured after 1 week post treatment by geimsa staining based analysis relative to control; type: functional; design: scale not given: the % may be the effect or the level left; conditions: time 1 weeks
[6] = Stability of the compound in Tris-buffer at 10 ug/ml at pH 7.4 measured upto 120 min by HPLC analysis; type: physicochemical; conditions: at 10 µg/mL, read-out: Stability
[7] = Toxicity in BALB/c mouse assessed as effect on body weight at 10 to 40 mg/kg, po measured after 1 week; type: organism-based; conditions: in vivo, 168 h, dose 10-40 mg/kg, time 1 weeks
J774 [8] = assay: Cytotoxicity against mouse J774 cells at 50 uM incubated for 72 hrs by MTT assay relative to control; type: toxicity, cell-based; conditions: j774, 72 h
Leishmania donovani [9] = assay: Antileishmanial activity against Leishmania donovani infected in golden hamster assessed as inhibition of parasite growth in liver at 80 mg/kg, po administered for 7 days and measured after 28 days by giemsa staining based analysis relative to control; type: functional; design: scale not given: the % may be the effect or the level left; conditions: time 28 day
Leishmania donovani [10] = assay: Antileishmanial activity against amastigote form of Leishmania donovani infected in BALB/c mouse assessed as inhibition of parasite growth in liver at 40 mg/kg, po measured after 1 week post treatment by geimsa staining based analysis relative to control; type: functional; design: scale not given: the % may be the effect or the level left; conditions: time 1 weeks
[11] = Toxicity in BALB/c mouse assessed as effect on skin texture at 10 to 40 mg/kg, po measured after 1 week; type: organism-based; conditions: in vivo, 168 h, dose 10-40 mg/kg, time 1 weeks
Splenocyte [12] = assay: Immunostimulatory activity in mouse splenocyte assessed as fold increase in IL-12 synthesis at 10 to 40 mg/kg measured after 1 week by RT-PCR analysis; type: functional; conditions: dose 10-40 mg/kg; time 1 weeks
Leishmania donovani [13] = assay: Antileishmanial activity against Leishmania donovani infected in golden hamster assessed as inhibition of parasite growth in spleen at 80 mg/kg, po administered for 7 days and measured after 28 days by giemsa staining based analysis relative to control; type: functional; design: scale not given: the % may be the effect or the level left; conditions: time 28 day
J774 [14] = assay: Cytotoxicity against mouse J774 cells at 12.5 uM incubated for 72 hrs by MTT assay relative to control; type: toxicity, cell-based; conditions: j774, 72 h
[15] = Stability of the compound in stimulated gastric fluid at 10 ug/ml at pH 1.2 measured upto 120 min by HPLC analysis; type: ADME; conditions: simulated gastric fluid, at 10 µg/mL, read-out: Stability
[16] = Selectivity index, ratio of CC50 for mouse J774 macrophage to IC50 for Leishmania donovani amastigotes infected in J774 macrophage; type: toxicity; conditions: J774 macrophages, read-out: Ratio CC50/IC50
Leishmania donovani [17] = assay: Antileishmanial activity against Leishmania donovani amastigotes infected in J774 macrophage assessed as inhibition of parasite growth at 25 uM incubated for 48 hrs by luciferase assay relative to control; type: functional; design: scale not given: the % may be the effect or the level left
Leishmania donovani [18] = assay: Antileishmanial activity against Leishmania donovani infected in golden hamster assessed as inhibition of parasite growth in liver at 40 mg/kg, po administered for 7 days and measured after 28 days by giemsa staining based analysis relative to control; type: functional; design: scale not given: the % may be the effect or the level left; conditions: time 28 day
Leishmania donovani [19] = assay: Antileishmanial activity against Leishmania donovani infected in golden hamster assessed as inhibition of parasite growth in spleen at 40 mg/kg, po administered for 7 days and measured after 28 days by giemsa staining based analysis relative to control; type: functional; design: scale not given: the % may be the effect or the level left; conditions: time 28 day
[20] = Renal toxicity in golden hamster assessed as effect on urea level at 40 mg/kg, po measured after 28 days post infection; type: organism-based, Mesocricetus auratus; conditions: in vivo, 672 h, time 28 day
J774 [21] = assay: Cytotoxicity against mouse J774 macrophage incubated for 72 hrs by MTT assay; type: functional
[22] = Renal toxicity in golden hamster assessed as effect on creatinine level at 40 mg/kg, po measured after 28 days post infection; type: organism-based, Mesocricetus auratus; conditions: in vivo, 672 h, time 28 day
Leishmania donovani [23] = assay: Antileishmanial activity against Leishmania donovani promastigotes at 25 uM measured after 48 hrs by MTT assay relative to control; type: functional
[24] = Toxicity in golden hamster infected with Leishmania donovani assessed as reduction in serum ALT level at 40 mg/kg ,po and measured after 28 days post infection (reference value: 81.58 IU/L); type: organism-based, Mesocricetus auratus; conditions: in vivo, 672 h, time 28 day
Leishmania donovani [25] = assay: Antileishmanial activity against amastigote form of Leishmania donovani infected in BALB/c mouse assessed as inhibition of parasite growth in spleen at 40 mg/kg, po measured after 1 week post treatment by geimsa staining based analysis relative to control; type: functional; design: scale not given: the % may be the effect or the level left; conditions: time 1 weeks
Leishmania donovani [26] = assay: Antileishmanial activity against Leishmania donovani amastigotes infected in J774 macrophage assessed as inhibition of parasite growth incubated for 48 hrs by luciferase assay; type: functional, organism-based; conditions: J774, 48 h
Splenocyte [27] = assay: Immunostimulatory activity in mouse splenocyte assessed as decrease in IL-10 secretion at 10 to 40 mg/kg measured after 1 week by RT-PCR analysis relative to control; type: functional; design: scale not given: the % may be the effect or the level left; conditions: dose 10-40 mg/kg, time 1 weeks
[28] = Stability of the compound in stimulated intestinal fluid at 10 ug/ml at pH 6.8 measured after 120 min by HPLC analysis; type: ADME; conditions: simulated intestinal fluid, at 10 µg/mL, read-out: Stability
Leishmania donovani [29] = assay: Antileishmanial activity against amastigote form of Leishmania donovani infected in BALB/c mouse assessed as inhibition of parasite growth in liver at 20 mg/kg, po measured after 1 week post treatment by geimsa staining based analysis relative to control; type: functional; design: scale not given: the % may be the effect or the level left; conditions: time 1 weeks
Leishmania donovani [30] = assay: Antileishmanial activity against amastigote form of Leishmania donovani infected in BALB/c mouse assessed as inhibition of parasite growth in liver at 10 mg/kg, po measured after 1 week post treatment by geimsa staining based analysis relative to control; type: functional; design: scale not given: the % may be the effect or the level left; conditions: time 1 weeks
[31] = Toxicity in golden hamster infected with Leishmania donovani assessed as reduction in serum ALT level at 30 mg/kg ,po and measured after 28 days post infection (reference value: 81.58 IU/L); type: organism-based, Mesocricetus auratus; conditions: in vivo, 672 h, time 28 day
[32] = Toxicity in golden hamster infected with Leishmania donovani assessed as reduction in serum AST level at 30 mg/kg ,po and measured after 28 days post infection (reference value: 82.72 IU/L); type: organism-based, Mesocricetus auratus; conditions: in vivo, 672 h, time 28 day
[33] = Renal toxicity in golden hamster assessed as effect on urea level at 30 mg/kg, po measured after 28 days post infection; type: organism-based, Mesocricetus auratus; conditions: in vivo, 672 h, time 28 day
[34] = Renal toxicity in golden hamster assessed as effect on creatinine level at 30 mg/kg, po measured after 28 days post infection; type: organism-based, Mesocricetus auratus; conditions: in vivo, 672 h, time 28 day
Leishmania donovani [35] = assay: Antileishmanial activity against Leishmania donovani infected in golden hamster assessed as elimination of organ parasite burden at 30 mg/kg, po administered for 7 days and measured after 28 days by giemsa staining based analysis relative to control; type: functional; conditions: time 28 day

CCn1c(-c2ccc(OCC(=O)Nc3ccccc3)cc2)nc2ccccc2c1=O
Activity [1]: 119.82 IU/L
Activity (Leishmania donovani [2]): 53.3%
IC50 (Leishmania donovani [3]): 5.76 µM
Activity (J774 [4]): 77.94%
Activity (Leishmania donovani [5]): 28.1%
remaining at 2 h, 10 ug/ml [6]: 91.6%
Activity [7]: Non-Toxic
Activity (J774 [8]): 42.29%
Activity (Leishmania donovani [9]): 77.1%
Activity (Leishmania donovani [10]): 77.3%
Activity [11]: Non-Toxic
fold change (FC) (Splenocyte [12]): 2.03
Activity (Leishmania donovani [13]): 75.7%
Activity (J774 [14]): 84.82%
remaining at 2 h, 10 ug/ml [15]: 88.8%
selectivity ratio [16]: 12.1
Activity (Leishmania donovani [17]): 80.66%
Activity (Leishmania donovani [18]): 46.1%
Activity (Leishmania donovani [19]): 53.9%
Activity [20]: Non-Toxic
CC50 (J774 [21]): 72.9 µM
Activity [22]: Non-Toxic
Activity (Leishmania donovani [23]): 84.61%
Activity [24]: 100.8 IU/L
Activity (Leishmania donovani [25]): 74.1%
IC50 (Leishmania donovani [26]): 6.02 µM
Activity (Splenocyte [27]): 23.68%
remaining at 2 h, 10 ug/ml [28]: 89.6%
Activity (Leishmania donovani [29]): 54.4%
Activity (Leishmania donovani [30]): 29.8%

CCCCCCCCCCCCCCCCOP(=O)([O-])OCC[N+](C)(C)C [MILTEFOSINE]
Activity (Leishmania donovani [2]): 98.51%
IC50 (Leishmania donovani [3]): 6.91 µM
Activity (J774 [4]): 76.74%
Activity [31]: 20 IU/L
Activity (J774 [8]): 53.21%
Activity [32]: 25 IU/L
Activity (J774 [14]): 85.44%
selectivity ratio [16]: 6.21
Activity [33]: Non-Toxic
CC50 (J774 [21]): 68 µM
IC50 (Leishmania donovani [26]): 11 µM
Activity [34]: Non-Toxic
Activity (Leishmania donovani [35]): 100%
Activity (Leishmania donovani [29]): 97.23%

From ChEMBL document CHEMBL5620379, “Discovery, SAR and mechanistic studies of quinazolinone-based acetamide derivatives in experimental visceral leishmaniasis” (Eur J Med Chem, 2023)
